Experiments:
B. subtilis 168 [1] = assay: fitness (endpoint OD595 vs no drug) (fraction); higher = more growth
Procedure, shortened: (§1)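 Fitness was defined as the optical density at the transition into stationary phase relative to the robust mean of no-drug control wells. Values were capped at 1. Cultures were started at OD595 0.01 in 384-well plates (30 µl, or 55 µl for S. pneumoniae) in TSB, LB Lennox or CY at 37 °C. OD595 was recorded every 30 min over 14 h, with the first reading subtracted as background.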

S. aureus DSM 20231 [2] = assay: as above
Procedure, shortened: as §1

S. aureus Newman [3] = assay: as above
Procedure, shortened: as §1

S. pneumoniae D39V [4] = assay: as above
Procedure, shortened: as §1

B. subtilis 168 [5] = assay: Bliss interaction score (quartile over a dose matrix) (fitness difference); higher = more antagonism (negative = synergy)
Procedure, shortened: (§2)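 The Bliss score is observed minus expected fitness under the product model, reported as quartiles over technical, biological and donor/recipient replicates. Fitness is the OD595 at entry into stationary phase divided by the plate's robust no-drug mean and capped at 1. Single-drug fitness was inferred from combination data.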

S. aureus DSM 20231 [6] = assay: as above
Procedure, shortened: as §2

S. aureus Newman [7] = assay: as above
Procedure, shortened: as §2

S. pneumoniae D39V [8] = assay: as above
Procedure, shortened: as §2

[9] = first compound 0.039 µg/mL, partner 0.781 µg/mL, one replicate
[10] = first compound 0.039 µg/mL, partner 1.562 µg/mL, one replicate
[11] = first compound 0.039 µg/mL, partner 3.124 µg/mL, one replicate
[12] = first compound 0.078 µg/mL, partner 0.781 µg/mL
[13] = first compound 0.078 µg/mL, partner 1.562 µg/mL
[14] = first compound 0.078 µg/mL, partner 3.124 µg/mL
[15] = first compound 0.156 µg/mL, partner 0.781 µg/mL
[16] = first compound 0.156 µg/mL, partner 1.562 µg/mL
[17] = first compound 0.156 µg/mL, partner 3.124 µg/mL
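For Bliss interaction score (quartile over a dose matrix) in this document: first quartile when negative (synergy) and third quartile when positive (antagonism).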

CO/N=C(\C(=O)N[C@@H]1C(=O)N2C(C(=O)O)=C(COC(C)=O)CS[C@H]12)c1csc(N)n1 [Cefotaxime] + C[C@@H]1O[C@@H]1P(=O)(O)O [Fosfomycin]
fitness (B. subtilis 168 [1]; first compound 0.00775 µg/mL, partner 1.562 µg/mL, one replicate): 0.573
fitness (B. subtilis 168 [1]; first compound 0.00775 µg/mL, partner 3.124 µg/mL, one replicate): 0.446
fitness (B. subtilis 168 [1]; first compound 0.00775 µg/mL, partner 6.248 µg/mL, one replicate): 0.274
fitness (B. subtilis 168 [1]; first compound 0.0155 µg/mL, partner 1.562 µg/mL, one replicate): 0.443
fitness (B. subtilis 168 [1]; first compound 0.0155 µg/mL, partner 3.124 µg/mL, one replicate): 0.362
fitness (B. subtilis 168 [1]; first compound 0.0155 µg/mL, partner 6.248 µg/mL, one replicate): 0.198
fitness (B. subtilis 168 [1]; first compound 0.031 µg/mL, partner 1.562 µg/mL, one replicate): 0.319
fitness (B. subtilis 168 [1]; first compound 0.031 µg/mL, partner 3.124 µg/mL, one replicate): 0.225
fitness (B. subtilis 168 [1]; first compound 0.031 µg/mL, partner 6.248 µg/mL, one replicate): 0.156
fitness (B. subtilis 168 [1]; first compound 0.0625 µg/mL, partner 1.562 µg/mL, one replicate): 0.454
fitness (B. subtilis 168 [1]; first compound 0.0625 µg/mL, partner 3.124 µg/mL, one replicate): 0.413
fitness (B. subtilis 168 [1]; first compound 0.0625 µg/mL, partner 6.248 µg/mL, one replicate): 0.34
fitness (B. subtilis 168 [1]; first compound 0.125 µg/mL, partner 1.562 µg/mL, one replicate): 0.472
fitness (B. subtilis 168 [1]; first compound 0.125 µg/mL, partner 3.124 µg/mL, one replicate): 0.389
fitness (B. subtilis 168 [1]; first compound 0.125 µg/mL, partner 6.248 µg/mL, one replicate): 0.238
fitness (B. subtilis 168 [1]; first compound 0.25 µg/mL, partner 1.562 µg/mL, one replicate): 0.367
fitness (B. subtilis 168 [1]; first compound 0.25 µg/mL, partner 3.124 µg/mL, one replicate): 0.337
fitness (B. subtilis 168 [1]; first compound 0.25 µg/mL, partner 6.248 µg/mL, one replicate): 0.186
fitness (B. subtilis 168 [1]; first compound 0.5 µg/mL, partner 1.562 µg/mL): 0.244
fitness (B. subtilis 168 [1]; first compound 0.5 µg/mL, partner 3.124 µg/mL): 0.194
fitness (B. subtilis 168 [1]; first compound 0.5 µg/mL, partner 6.248 µg/mL): 0.16
fitness (B. subtilis 168 [1]; first compound 1 µg/mL, partner 1.562 µg/mL): 0.134
fitness (B. subtilis 168 [1]; first compound 1 µg/mL, partner 3.124 µg/mL): 0.102
fitness (B. subtilis 168 [1]; first compound 1 µg/mL, partner 6.248 µg/mL): 0.0644
fitness (B. subtilis 168 [1]; first compound 2 µg/mL, partner 1.562 µg/mL): 0.13
fitness (B. subtilis 168 [1]; first compound 2 µg/mL, partner 3.124 µg/mL): 0.117
fitness (B. subtilis 168 [1]; first compound 2 µg/mL, partner 6.248 µg/mL): 0.054
fitness (S. aureus DSM 20231 [2]; [9]): 0.718
fitness (S. aureus DSM 20231 [2]; [10]): 0.673
fitness (S. aureus DSM 20231 [2]; [11]): 0.504
fitness (S. aureus DSM 20231 [2]; [12]): 0.65
fitness (S. aureus DSM 20231 [2]; [13]): 0.608
fitness (S. aureus DSM 20231 [2]; [14]): 0.559
fitness (S. aureus DSM 20231 [2]; [15]): 0.624
fitness (S. aureus DSM 20231 [2]; [16]): 0.62
fitness (S. aureus DSM 20231 [2]; [17]): 0.532
fitness (S. aureus DSM 20231 [2]; first compound 0.312 µg/mL, partner 0.781 µg/mL): 0.683
fitness (S. aureus DSM 20231 [2]; first compound 0.312 µg/mL, partner 1.562 µg/mL): 0.623
fitness (S. aureus DSM 20231 [2]; first compound 0.312 µg/mL, partner 3.124 µg/mL): 0.518
fitness (S. aureus Newman [3]; [9]): 0.58
fitness (S. aureus Newman [3]; [10]): 0.511
fitness (S. aureus Newman [3]; [11]): 0.202
fitness (S. aureus Newman [3]; [12]): 0.628
fitness (S. aureus Newman [3]; [13]): 0.536
fitness (S. aureus Newman [3]; [14]): 0.21
fitness (S. aureus Newman [3]; [15]): 0.536
fitness (S. aureus Newman [3]; [16]): 0.497
fitness (S. aureus Newman [3]; [17]): 0.206
fitness (S. aureus Newman [3]; first compound 0.312 µg/mL, partner 0.781 µg/mL, one replicate): 0.341
fitness (S. aureus Newman [3]; first compound 0.312 µg/mL, partner 1.562 µg/mL, one replicate): 0.205
fitness (S. aureus Newman [3]; first compound 0.312 µg/mL, partner 3.124 µg/mL, one replicate): 0.117
fitness (S. aureus Newman [3]; first compound 0.625 µg/mL, partner 0.781 µg/mL): 0.17
fitness (S. aureus Newman [3]; first compound 0.625 µg/mL, partner 1.562 µg/mL): 0.185
fitness (S. aureus Newman [3]; first compound 0.625 µg/mL, partner 3.124 µg/mL): 0.084
fitness (S. aureus Newman [3]; first compound 1.25 µg/mL, partner 0.781 µg/mL): 0.0664
fitness (S. aureus Newman [3]; first compound 1.25 µg/mL, partner 1.562 µg/mL): 0.033
fitness (S. aureus Newman [3]; first compound 1.25 µg/mL, partner 3.124 µg/mL): 0.0169
fitness (S. aureus Newman [3]; first compound 2.5 µg/mL, partner 0.781 µg/mL): 0.0252
fitness (S. aureus Newman [3]; first compound 2.5 µg/mL, partner 1.562 µg/mL): 0.0136
fitness (S. aureus Newman [3]; first compound 2.5 µg/mL, partner 3.124 µg/mL): 0.0374
fitness (S. pneumoniae D39V [4]; first compound 0.0018 µg/mL, partner 1.25 µg/mL): 0.958
fitness (S. pneumoniae D39V [4]; first compound 0.0018 µg/mL, partner 2.5 µg/mL): 0.959
fitness (S. pneumoniae D39V [4]; first compound 0.0018 µg/mL, partner 5 µg/mL): 0.761
fitness (S. pneumoniae D39V [4]; first compound 0.0035 µg/mL, partner 1.25 µg/mL): 0.962
fitness (S. pneumoniae D39V [4]; first compound 0.0035 µg/mL, partner 2.5 µg/mL): 0.943
fitness (S. pneumoniae D39V [4]; first compound 0.0035 µg/mL, partner 5 µg/mL): 0.736
fitness (S. pneumoniae D39V [4]; first compound 0.007 µg/mL, partner 1.25 µg/mL): 0.897
fitness (S. pneumoniae D39V [4]; first compound 0.007 µg/mL, partner 2.5 µg/mL): 0.778
fitness (S. pneumoniae D39V [4]; first compound 0.007 µg/mL, partner 5 µg/mL): 0.533
Bliss interaction score (B. subtilis 168 [5]): 0.0459
Bliss interaction score (S. aureus DSM 20231 [6]): 0.143
Bliss interaction score (S. aureus Newman [7]): 0.113
Bliss interaction score (S. pneumoniae D39V [8]): -0.0644

Reference: the supplement of paper PMC10627819
